Patent US5902794A (priority 1997, dated 1999)

Columns and labels:
LS-174T = test: growth of LS-174T human colon carcinoma in nude mice; type: in vivo; settings: nude mouse, pellet with 10 mg cAMP analogue, day 7
Protocol: LS174T, human colon cancer line was s.c. grown in nude mice and a solid
tumor, transplantable, was obtained.
8Cl-cAMP and DBcAMP were given as a 20mg pellet consisting of 10 mg of […]

[1] = test system: p21 ras protein (MCF-7 cells); test: Western blotting of p21 ras protein in MCF-7 cells; type: cell-based, human; settings: 10 microM, three days
Protocol: Western blotting of p21 protein was performed as described below. […] V is cell lysate from Ha-MuSV-transformed NIH3T3 clone 13-3B-4. M, marker proteins of known molecular weight.
Cellular proteins present in cell extracts were separated by 12% SDS-PAGE and transferred to nitrocellulose sheets in transfer buffer (25 mM Tris, 192 mM glycine, 20% methanol, pH 7.4). Nitrocellulose sheets were washed and first incubated with 3% bovine serum albumin in NTE-NP40 (50 mM Tris-HCl, pH 7.5, 150 mM NaCl, 2 mM EDTA, 0.1% Nonidet P-40) for three hours at 37° C. and then sequentially incubated with medium containing p21 monoclonal antiserum Y13-259 directed against the Ha-MuSV-encoded p21 for sixteen hours at 4° C., rabbit anti-rat IgG for 2.5 hours in an ice-water bath, and 5×10^5 cpm/ml ^125 I-protein A for one hour in an ice-water bath. The nitrocellulose sheets were air-dried and exposed to Kodak XAR film for 12-36 hours at -20° C. Comparison of the resulting autoradiograms with others in which normal rat serum was substituted for p21 monoclonal antibody permitted identification of p21. To provide a reference p21, cell lysates were prepared from NIH 3T3 clone 13-3B-4 that had been transfected with Ha-MuSV DNA.
The levels of p21 protein are expressed relative to the p21 level in the untreated control cells, which is set equal to 1.0 O.D.

[2] = test system: R^II cAMP receptor protein (LS-174T); test: photoaffinity labelling of R^II cAMP receptor protein, LS-174T; type: cell-based, human; settings: 10 microM, 3 days; relative to control R^I
Protocol: M is marker proteins of known molecular weight.
The incubations were carried out at 23° C. for 60 minutes in 96-well immunoplates. The reaction mixtures were then irradiated for 30 seconds at 254 nm, placing a Mineralite UVS-11 hand lamp directly onto the plate. The samples were mixed with 25 microliters of 3× sample buffer (3% SDS, 15% beta-mercaptoethanol, 30 mM Tris, 30% glycerol, 1% bromophenol blue saturated solution), boiled for 3 minutes, and centrifuged at 700×g for five minutes. The samples containing 50-100 micrograms of protein were subjected to 0.05% SDS-12% PAGE. The gels were fixed, dried, and exposed to X-ray films overnight. The protein concentrations were determined by the method of Lowry et al., (J. Biol. Chem. 193: 265-275, 1951) with bovine serum albumin as standard.
The levels of the receptor proteins are expressed relative to the R^I level in the untreated control cells of MDA-MB-231 and LS-174T, which are each set equal to 1.0 O.D.; the scale was expanded to differentiate the lower intensity bands.

[3] = test system: breast and colon cancer cells; test: effect on cell morphology; type: cell-based, human
Source text: The photographs were taken on Day 4, ×160.
Furthermore, the synergistic growth inhibitory effect of C-6 and C-8 analogue combinations was also reflected in the change in the cell morphology.

[4] = test system: R^I cAMP receptor protein (Molt-4); test: R^I cAMP receptor protein in Molt-4 leukemic cells; type: cell-based, human; settings: 5 micromol/L, three days
Source text: (§1) M marker proteins of known molecular weight. […] The resulting supernatants were used as cell lysates. […] ND=nondetectable.

[5] = test system: DMBA-induced mammary carcinomas; test: in vivo growth of DMBA-induced mammary carcinomas in rats; set-up: species or system rat
Protocol: […] |DMBA-induced mammary carcinomas in rats […] | 10 mg. cholesterol), was implanted on day 0 and day 14.

c-myc protein = c-myc protein level, Western blotting (FIG. 9B); type: cell-based, human; settings: 5 micromol/L, three days
Protocol: The cells were grown in suspension culture in RPMI 1640 medium supplemented with 10% fetal bovine serum, penicillin (50 U/ml), streptomycin ([…]), 10 mmol/L HEPES buffer, and extra glutamine. […] Surface antigen analysis of HL-60 cells was performed by flow cytometry using a panel of monoclonal antibodies reactive with either myeloid cells or monocytic cells. Terminal deoxynucleotidyl transferase (TdT) was assayed by an immunoperoxidase method using a TdT fluorescence kit. Western blotting of c-myc protein was performed using c-myc antibody 15206D11 (Scripps Clinic and Research Foundation, LaJolla, Calif.).
as §1

For Nc1ncnc2c1nc(Cl)n2[C@@H]1O[C@@H]2COP(=O)(O)O[C@H]2[C@H]1O [8-Cl-cAMP], the “Change in mean tumor volume” value (LS-174T) was 0.58 cm^3, the “Change in mean tumor volume (%)” value (LS-174T; none = 100) was 60% and the “p21 level, in words” value [1] was “markedly decreased level of p21”. The “R^II relative level” value [2] was 0.25 ± 0.02, the morphological change ([3]; 1 microM alone, four days) was “did not induce a change in the cell morphology” and the morphological change ([3]; 50 microM, four to five days) was “characteristic morphological change”. The “R^I receptor protein, in words” value [4] was “markedly decreased”, the “tumor growth, in words” value ([5]; 10 mg pellet implanted twice every two weeks) was “completely stopped tumor growth” and the “tumor regression within 30 days” value ([5]; within 30 days) was ~100%. The “c-myc protein level, in words” value (c-myc protein) was “marked reduction of c-myc protein level”.
